These results are taken from US20240150377A1, “MODULATORS OF CYSTIC FIBROSIS TRANSMEMBRANE CONDUCTANCE REGULATOR” (VERTEX PHARMACEUTICALS INCORPORATED, priority 2020, published 2024).

A word on the EC50: it is the midpoint of the concentration-response curve.

Where two headings read alike, the source gives them in different places.

Series [1] concerns the target T1, CFTR (Homo sapiens, UniProt P13569). Briefly: Membrane potential dye, Enteroid Assay A. Type of series: cell-based. Particulars: for Ent. A Max Activity: chloride transport as % of triple combination control (Enteroid Assay A); for EC50: human enteroid cells, 18-24 hours, acute 10 μM forskolin and 300 nM ivacaftor, read-out: Ent. A EC50. The essentials:
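Human intestinal enteroids incubated 18-24 h at 37 °C with test compound, then loaded with 20 μM methyl oxonol (with CaCC inhibitors). Chloride transport triggered in chloride-free buffer with 10 μM forskolin, 100 μM IBMX, 300 nM Compound III; fluorescence read 15 min, expressed as % of a triple-combination corrector/potentiator control.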

The conditions of series [2]: amide bond, 13-membered ring.
The target in the next series is T2, F508del (Homo sapiens, UniProt P13569, DEL508-508).
T2 construct: expressed in transfected cells
T2 sequence (P13569 with tags, fused parts or gaps DEL508-508): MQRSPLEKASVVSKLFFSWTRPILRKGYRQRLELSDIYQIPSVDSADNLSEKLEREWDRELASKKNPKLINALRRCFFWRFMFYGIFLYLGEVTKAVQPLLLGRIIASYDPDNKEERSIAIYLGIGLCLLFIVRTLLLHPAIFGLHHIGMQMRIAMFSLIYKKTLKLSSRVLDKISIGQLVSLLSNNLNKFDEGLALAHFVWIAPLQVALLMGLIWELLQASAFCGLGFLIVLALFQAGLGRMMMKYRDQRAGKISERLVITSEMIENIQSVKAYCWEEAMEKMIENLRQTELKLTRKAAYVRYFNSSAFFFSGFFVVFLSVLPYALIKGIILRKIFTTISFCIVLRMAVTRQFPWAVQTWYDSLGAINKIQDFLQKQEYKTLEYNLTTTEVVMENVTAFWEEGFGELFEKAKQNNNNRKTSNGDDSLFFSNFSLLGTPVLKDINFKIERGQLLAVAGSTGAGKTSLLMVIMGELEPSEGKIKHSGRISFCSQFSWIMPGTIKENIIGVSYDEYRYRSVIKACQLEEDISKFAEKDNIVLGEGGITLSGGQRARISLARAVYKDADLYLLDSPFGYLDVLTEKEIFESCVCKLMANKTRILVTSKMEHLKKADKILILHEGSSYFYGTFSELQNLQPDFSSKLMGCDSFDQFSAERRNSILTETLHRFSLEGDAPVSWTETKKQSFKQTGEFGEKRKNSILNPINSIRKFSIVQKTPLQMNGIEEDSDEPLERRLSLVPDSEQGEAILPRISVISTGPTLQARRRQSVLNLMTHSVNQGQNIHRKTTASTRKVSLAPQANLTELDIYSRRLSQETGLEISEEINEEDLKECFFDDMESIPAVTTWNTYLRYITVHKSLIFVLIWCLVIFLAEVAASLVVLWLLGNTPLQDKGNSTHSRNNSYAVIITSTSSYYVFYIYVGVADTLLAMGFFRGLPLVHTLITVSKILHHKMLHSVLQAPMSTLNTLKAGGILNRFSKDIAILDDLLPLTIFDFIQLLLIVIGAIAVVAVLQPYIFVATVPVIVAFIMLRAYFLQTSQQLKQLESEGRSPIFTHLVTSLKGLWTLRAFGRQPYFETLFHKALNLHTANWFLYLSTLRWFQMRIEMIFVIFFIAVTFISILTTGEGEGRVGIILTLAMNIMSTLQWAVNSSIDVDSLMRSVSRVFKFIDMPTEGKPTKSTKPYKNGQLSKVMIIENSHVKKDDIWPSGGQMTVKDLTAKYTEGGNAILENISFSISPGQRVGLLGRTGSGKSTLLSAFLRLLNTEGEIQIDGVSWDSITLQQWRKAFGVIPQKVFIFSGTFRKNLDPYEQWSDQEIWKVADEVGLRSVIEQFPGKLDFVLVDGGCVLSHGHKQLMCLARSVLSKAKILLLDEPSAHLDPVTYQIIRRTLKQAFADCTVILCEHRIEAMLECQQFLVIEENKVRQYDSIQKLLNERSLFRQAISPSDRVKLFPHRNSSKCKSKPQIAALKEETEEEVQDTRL
As to the kind of experiment: 3T3 assay: membrane potential optical assay for F508del correction. It counts as cell-based. The note with it: Table 6, F508del NIH 3T3 cells; for Emax: NIH3T3, compared to lumacaftor in combination with acutely added 300 nM Ivacaftor, read-out: 3T3 Max Activity; for EC50: 18-24 hours at 37° C., forskolin, acutely added 300 nM Ivacaftor. In a few lines: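 NIH 3T3 mouse fibroblasts stably expressing F508del incubated with corrector compounds across a concentration range for 16-24 hours at 37° C, then loaded with voltage-sensing redistribution dye. Response is FLIPR membrane potential change on forskolin activation with a chloride gradient (chloride-free gluconate bath, HEPES pH 7.4).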

Series [3] concerns the target T1, CFTR. As to the kind of experiment: Membrane potential dye, Enteroid Assay B. Particulars: for EC50: read-out: Ent. B EC50; for Ent. B Max Activity: chloride transport as % of triple combination control (Enteroid Assay B). It counts as cell-based. The essentials: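 Human intestinal enteroids were treated with compound in maintenance medium for 18-24 h at 37° C, then loaded with methyl oxonol membrane-potential dye (25 min, room temperature). Chloride transport was triggered in chloride-free buffer with 10 μM forskolin, 100 μM IBMX and 300 nM Compound III, fluorescence read 15 min; expressed as % of triple-combination control.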

Where [4] appears, read: Table 8, human enteroid cells, 18-24 hours, acute 10 μM forskolin and 300 nM ivacaftor.

T1 sequence (P13569 with tags, fused parts or gaps DEL508-508): as above

For the molecule `Cc1cccc(C)c1-c1cc2nc(n1)NS(=O)(=O)c1cccc(c1)C(=O)N(C)[C@H](CC(C)C)[C@H](CC(C)C)O2` [Compound 2, (10S,11R)-6-(2,6-Dimethylphenyl)-12-methyl-10,11-bis(2-methylpropyl)-9-oxa-2λ^6-thia-3,5,12,19-tetraazatricyclo[12.3.1.14,8]nonadeca-1(18),4(19),5,7,14,16-hexaene-2,2,13-trione], on CFTR [1] (Table 6), the “Ent. A Max Activity” value is reported as “+++ (+++ is >60%)” and the concentration for a half-maximal effect (EC50) is below 1 µM. The molecule further gave a ring closure, yield after HPLC in series [2] (from CN[C@H](CC(C)C)[C@H](CC(C)C)Oc1cc(-c2c(C)cccc2C)nc(NS(=O)(=O)c2cccc(C(=O)O)c2)n1, HATU/TEA, DMF, 18.8 mM, 15.0 h) of 47%. Further, on F508del, the Emax is above 60% and the EC50 was below 1 µM.
With `Cc1cccc(C)c1-c1cc2nc(n1)NS(=O)(=O)c1cccc(c1)C(=O)N(CC(C)C)CCO2` [Compound 4, 6-(2,6-Dimethylphenyl)-12-isobutyl-2,2-dioxo-9-oxa-2λ^6-thia-3,5,12,19-tetrazatricyclo[12.3.1.14,8]nonadeca-1(18),4(19),5,7,14,16-hexaen-13-one], on CFTR [1] (Table 6), the “Ent. A Max Activity” value is “+++ (+++ is >60%)” and the EC50 was below 1 µM. Moreover, the ring closure, yield after HPLC in series [2] (from Cc1cccc(C)c1-c1cc(OCCNCC(C)C)nc(NS(=O)(=O)c2cccc(C(=O)O)c2)n1, HATU/TEA, DMF, 91.6 mM, 0.5 h) amounted to 48%. Also, on F508del, the Emax is above 60% and the EC50 was below 1 µM.
On to `Cc1cccc(C)c1-c1cc2nc(n1)NS(=O)(=O)c1cccc(c1)C(=O)N(CCC1(C(F)(F)F)CC1)[C@H](CC(C)C)CO2` [Compound 37, (11R)-6-(2,6-Dimethylphenyl)-11-(2-methylpropyl)-12-{2-[1-(trifluoromethyl)cyclopropyl]ethyl}-9-oxa-2λ^6-thia-3,5,12,19-tetraazatricyclo[12.3.1.14,8]nonadeca-1(17),4(19),5,7,14(18),15-hexaene-2,2,13-trione], for which, on CFTR [1] (Table 6), the “Ent. A Max Activity” value was “+++ (+++ is >60%)” and the EC50 is below 1 µM. This molecule registered a ring closure, yield after HPLC in series [2] (from Cc1cccc(C)c1-c1cc(OC[C@@H](CC(C)C)NCCC2(C(F)(F)F)CC2)nc(NS(=O)(=O)c2cccc(C(=O)O)c2)n1, HATU/DIEA, DMF, 25.2 mM, 25.0 °C, 1.0 h) of 37%. On F508del, the Emax was above 60% and the EC50 was below 1 µM.
`Cc1cccc(C)c1-c1cc2nc(n1)NS(=O)(=O)c1cccc(c1)C(=O)N(Cc1ccc(N3CCOCC3)cn1)[C@H](CC(C)(C)C)CO2` [Compound 48, (11R)-6-(2,6-Dimethylphenyl)-11-(2,2-dimethylpropyl)-12-[(5-morpholino-2-pyridyl)methyl]-2,2-dioxo-9-oxa-2λ^6-thia-3,5,12,19-tetrazatricyclo[12.3.1.14,8]nonadeca-1(18),4(19),5,7,14,16-hexaen-13-one] registered a ring closure, yield after HPLC in series [2] (from Cc1cccc(C)c1-c1cc(OC[C@@H](CC(C)(C)C)NCc2ccc(N3CCOCC3)cn2)nc(NS(=O)(=O)c2cccc(C(=O)O)c2)n1, CDMT/NMM, DMF, 16.9 mM, 25.0 °C, 2.33 h, 2 steps) of 22%. On CFTR [3] (Table 9), the “Ent. B Max Activity (%)” value is recorded as “+++ (+++ is >600%)” and the EC50 is below 1 µM.
In series [2] (from Cc1cccc(C)c1-c1cc(OC[C@@H](CC(C)(C)C)NCc2ncccn2)nc(NS(=O)(=O)c2cccc(C(=O)O)n2)n1, HATU/DIEA, DMF, 30.5 mM, 25.0 °C, 0.5 h), `Cc1cccc(C)c1-c1cc2nc(n1)NS(=O)(=O)c1cccc(n1)C(=O)N(Cc1ncccn1)[C@H](CC(C)(C)C)CO2` [Compound 75, (11R)-6-(2,6-dimethylphenyl)-11-(2,2-dimethylpropyl)-12-[(pyrimidin-2-yl)methyl]-9-oxa-2λ^6-thia-3,5,12,18,19-pentaazatricyclo[12.3.1.14,8]nonadeca-1(18),4(19),5,7,14,16-hexaene-2,2,13-trione] displayed a ring closure, yield after HPLC of 46%. Further, on CFTR [3] (Table 8), the “Ent. B Max Activity” value was “+++ (+++ is >60%)”. On CFTR [3] (setting [4]), the EC50 was below 1 µM.
In the case of `COCCCCN1C(=O)c2cccc(c2)S(=O)(=O)Nc2nc(cc(-c3c(C)cccc3C)n2)OC[C@H]1CC(C)C` [Compound 84, (11R)-6-(2,6-dimethylphenyl)-11-isobutyl-12-(4-methoxybutyl)-2,2-dioxo-9-oxa-2λ^6-thia-3,5,12,19-tetrazatricyclo[12.3.1.14,8]nonadeca-1(18),4(19),5,7,14,16-hexaen-13-one], at CFTR [1] (Table 7), the “Ent. A Max Activity” value is reported as “+++ (+++ is >60%)” and the EC50 is below 1 µM. The molecule further gave a ring closure, yield after HPLC in series [2] (from COCCCCN[C@@H](COc1cc(-c2c(C)cccc2C)nc(NS(=O)(=O)c2cccc(C(=O)O)c2)n1)CC(C)C, NaOtBu then HATU, THF, 98.4 mM, 25.0 °C, 1.0 h, 2 steps) of 9%. In addition, the “Ent. B Max Activity” value at CFTR [3] (Table 7) is on record as “+++ (+++ is >60%)”. Also, at CFTR [3] (Table 7, human enteroid cells, 18-24 hours, acute 10 μM forskolin and 300 nM ivacaftor), the EC50 was below 1 µM.
Molecule `Cc1cccc(C)c1-c1cc2nc(n1)NS(=O)(=O)c1cccc(c1)C(=O)N(Cc1ncccn1)[C@H](CC(C)(C)C)CO2` [Compound 113, (11R)-6-(2,6-Dimethylphenyl)-11-(2,2-dimethylpropyl)-12-[(pyrimidin-2-yl)methyl]-9-oxa-2λ^6-thia-3,5,12,19-tetraazatricyclo[12.3.1.14,8]nonadeca-1(17),4(19),5,7,14(18),15-hexaene-2,2,13-trione] showed a ring closure, yield after HPLC in series [2] (from Cc1cccc(C)c1-c1cc(OC[C@@H](CC(C)(C)C)NCc2ncccn2)nc(NS(=O)(=O)c2cccc(C(=O)O)c2)n1, COMU/DIEA, DMF, 28.1 mM, 25.0 °C, 6.0 h) of 33%. The “Ent. B Max Activity” value on CFTR [3] (Table 8) is “+++ (+++ is >60%)”. In addition, the EC50 at CFTR [3] (setting [4]) is below 1 µM.
As to `Cc1cccc(C)c1-c1cc2nc(n1)NS(=O)(=O)c1cccc(c1)C(=O)N(Cc1cccnn1)[C@H](CC(C)(C)C)CO2` [Compound 135, (11R)-6-(2,6-dimethylphenyl)-11-(2,2-dimethylpropyl)-12-[(pyridazin-3-yl)methyl]-9-oxa-2λ^6-thia-3,5,12,19-tetraazatricyclo[12.3.1.14,8]nonadeca-1(18),4,6,8(19),14,16-hexaene-2,2,13-trione], in series [2] (from Cc1cccc(C)c1-c1cc(OC[C@@H](CC(C)(C)C)NCc2cccnn2)nc(NS(=O)(=O)c2cccc(C(=O)O)c2)n1, COMU/DIEA, DMF, 40.7 mM, 16.0 h), the ring closure, yield after HPLC was found to be 22%. At CFTR [3] (Table 8), the “Ent. B Max Activity” value is recorded as “+++ (+++ is >60%)”. For the same molecule, the EC50 at CFTR [3] (setting [4]) was below 1 µM.
Molecule `Cc1cccc(C)c1-c1cc2nc(n1)NS(=O)(=O)c1cccc(c1)C(=O)N(Cc1cnc(N)nc1)[C@H](CC(C)(C)C)CO2` [Compound 136, (11R)-12-[(2-Aminopyrimidin-5-yl)methyl]-6-(2,6-dimethylphenyl)-11-(2,2-dimethylpropyl)-9-oxa-2λ^6-thia-3,5,12,19-tetraazatricyclo[12.3.1.14,8]nonadeca-1(18),4,6,8(19),14,16-hexaene-2,2,13-trione] gave a ring closure, yield after HPLC in series [2] (from Cc1cccc(C)c1-c1cc(OC[C@@H](CC(C)(C)C)NCc2cnc(N)nc2)nc(NS(=O)(=O)c2cccc(C(=O)O)c2)n1, COMU/DIEA, DMF, 29.3 mM, 5.0 h) of 33%. Further, on CFTR [3] (Table 8), the “Ent. B Max Activity” value is listed as “+++ (+++ is >60%)”. On CFTR [3] (setting [4]), the EC50 is below 1 µM.
For the molecule `Cc1cccc(C)c1-c1cc2nc(n1)NS(=O)(=O)c1cccc(c1)C(=O)N(CCC(C)(C)C)[C@H](CC(C)(C)C)CO2` [Compound 138, (11R)-12-(3,3-Dimethylbutyl)-6-(2,6-dimethylphenyl)-11-(2,2-dimethylpropyl)-2,2-dioxo-9-oxa-2λ^6-thia-3,5,12,19-tetrazatricyclo[12.3.1.14,8]nonadeca-1(18),4(19),5,7,14,16-hexaen-13-one], at CFTR [1] (Table 6), the “Ent. A Max Activity” value is recorded as “+++ (+++ is >60%)” and the EC50 was below 1 µM. In series [2] (from Cc1cccc(C)c1-c1cc(OC[C@@H](CC(C)(C)C)NCCC(C)(C)C)nc(NS(=O)(=O)c2cccc(C(=O)O)c2)n1, HATU/DIEA, DMF, 8.4 mM, 2.0 h), this molecule had a ring closure, yield after HPLC of 39%.
In turn, `COC(=O)c1ccc(CCN2C(=O)c3cccc(c3)S(=O)(=O)Nc3nc(cc(-c4c(C)cccc4C)n3)OC[C@H]2CC(C)(C)C)cc1` [Compound 1081] came in with a ring closure, yield after HPLC in series [2] (from COC(=O)c1ccc(CCN[C@@H](COc2cc(-c3c(C)cccc3C)nc(NS(=O)(=O)c3cccc(C(=O)O)c3)n2)CC(C)(C)C)cc1, HATU/DIEA, DMF, 25.0 °C, 16.0 h, 2 steps) of 23%. At CFTR [3] (Table 9), the “Ent. B Max Activity (%)” value is “+++ (+++ is >600%)” and the EC50 is below 1 µM.
